Laboratory results as given in US12479816B2, “20-HETE formation inhibitors” (UNIVERSITY OF PITTSBURGH—OF THE COMMONWEALTH SYSTEM OF …, priority 2019, dated 2025).
Where two headings read alike, the source gives them in different places.

Key:
[1] = system: 20-HETE formation (CYP4) in HLM; assay: Inhibition of 20-HETE formation at 250 or 500 nM in HLM microsomal incubations; format: biochemical, human; conditions: 500 nM compound; HLM 300 μg/ml, AA 100 μM, 20 min
Procedure, shortened: (§1)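 Microsomes (300 μg/ml) or rCYP4F2 (25 pmol/mL) were incubated with 100 μM arachidonic acid, 1 mM NADPH and test compound in 0.12 M potassium phosphate with 5 mM MgCl2 for 20 min at 37° C. 20-HETE was quantified by UPLC-MS/MS with 20-HETE-d6 internal standard and expressed as percent of vehicle (n=3).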

rCYP4F2 = target: T1, rCYP4F2 (Homo sapiens, UniProt P78329); assay: Inhibition of 20-HETE formation at 250 or 500 nM in rCYP4F2 incubations; format: biochemical; conditions: 500 nM compound; rCYP4F2 25 pmol/mL; read-out: rCYP4F2 % inh. @ 500 nM
T1 sequence (P78329 5-520): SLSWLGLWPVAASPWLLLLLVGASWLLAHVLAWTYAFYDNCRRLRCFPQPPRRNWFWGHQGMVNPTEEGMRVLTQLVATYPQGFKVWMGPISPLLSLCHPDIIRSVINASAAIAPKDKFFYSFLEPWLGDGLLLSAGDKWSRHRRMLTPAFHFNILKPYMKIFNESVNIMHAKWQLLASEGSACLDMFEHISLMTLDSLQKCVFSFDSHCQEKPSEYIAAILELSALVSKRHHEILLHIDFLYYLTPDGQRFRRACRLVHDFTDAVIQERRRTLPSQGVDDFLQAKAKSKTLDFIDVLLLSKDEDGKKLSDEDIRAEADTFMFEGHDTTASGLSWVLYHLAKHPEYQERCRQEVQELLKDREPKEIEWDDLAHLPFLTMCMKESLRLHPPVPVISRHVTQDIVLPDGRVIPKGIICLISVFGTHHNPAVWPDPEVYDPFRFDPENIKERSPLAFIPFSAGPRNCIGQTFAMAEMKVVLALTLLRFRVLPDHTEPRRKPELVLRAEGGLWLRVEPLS
Procedure, shortened: as §1

[2] = system: 20-HETE formation (CYP4) in RLM; assay: Inhibition of 20-HETE formation at 250 or 500 nM in RLM microsomal incubations; format: biochemical, rat; conditions: 500 nM compound; RLM 300 μg/ml
Procedure, shortened: as §1

[3] = system: 20-HETE formation (CYP4) in RKM; assay: Inhibition of 20-HETE formation at 250 or 500 nM in RKM microsomal incubations; format: biochemical, rat; conditions: 500 nM compound; RKM 300 μg/ml
Protocol: To screen the inhibitory effects against 20-HETE formation, compounds were screened in HLM, RLM, RKM and rCYP4F2 microsomal incubations. Compounds dissolved in either 100% methanol or 100% DMSO to yield 10 mM stock solution. Microsomal incubations containing HLM, RLM, RKM (300 μg/ml) or rCYP4F2 (25 pmol/mL), AA (100 μM), NADPH (1 mM) treated with test compounds at various concentrations (500 nM or 250 nM) in a 1 ml total volume in incubation buffer (0.12 M potassium phosphate buffer containing 5 mM magnesium chloride). Reaction was started by adding NADPH to the incubates and was carried out at 37° C. in a shaking water bath for 20 min. Reaction was stopped by placing tubes on ice, followed by adding 125 μl 20-HETE-d6 as internal standard to each sample. Microsomal incubations were extracted with 3 ml ethyl ether twice, dried down under nitrogen gas and reconstituted in 125 μl 80:20 methanol:deionized H2O for analysis. 20-HETE formation was quantified using a validated UPLC-MS/MS assay and normalized by vehicle group. Each compound had three replications (n=3). Vehicle group was used as control to calculate percentage of 20-HETE formation rate. HET0016 (250 nM) was used as positive control. Incubates without NADPH group served as the negative control. An Acquity ultra performance LC autosampler (Waters, Milford, MA) was used to isolate 20-HETE on an UPLC BEH C18, 1.7 μm (2.1×100 mm) reversed-phase column (Waters, Milford, MA) protected by a guard column (2.1×5 mm; Waters, Milford, MA) of the same packing material. Column temperature was maintained at 55° C. Mobile phases consisted of 0.005% acetic acid, 5% acetonitrile in deionized water (A) and 0.005% acetic acid in acetonitrile (B). The flow rate for mobile phases is 0.5 ml/min. The initial mixture of mobile phase was 65:35 of A and B. Mobile phase B increased at 0.4 minutes after injection from 35% to 70% in a linear gradient over 4 minutes, and again increased to 95% over 0.5 minutes where it remained for 0.3 minutes. This was followed by a linear return to initial conditions over 0.1 minutes with a 1.5 minute pre-equilibration period prior to the next sample run. Total run time was 6.4 minutes for each injection. Injection volumes were 7.5 μl. Mass spectrometric analysis was carried out using a TSQ Quantum Ultra (Thermo Fisher Scientific, San Jose, CA) triple quadrupole mass spectrometer using heated electrospray ionization (HESI). Mass spectrometer was operated in negative selective reaction monitoring (SRM) mode with unit resolutions at both Q1 and Q3 set at 0.70 Da full width at half maximum. Scan time was set at 0.01 s and collision gas pressure was 1.3 mTorr. Quantitation of 20-HETE by SRM was performed by monitoring the m/z. Analytical data was acquired and analyzed using Xcaliber 3.0 data system (ThermoFinnigan, San Jose, CA).

[4] = Turbidometric solubility determination; format: physicochemical; conditions: PBS with 1% DMSO, aqueous buffer, kinetic from dmso stock, room temperature
Procedure, shortened: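 Precipitation was detected as a significant rise in absorbance at 620 nm over background, and this point set the maximum solubility. Compound was tested in PBS with 1% DMSO at final concentrations from 0 to 600 μM, in triplicate, after 2 h of shaking at room temperature.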

[5] = system: 20-HETE formation (CYP4) in HLM; assay: IC50 determination, 20-HETE formation in HLM; format: biochemical, human; conditions: HLM 300 μg/ml, AA 100 μM, 12 concentrations
Protocol: Microsomal incubations contained HLM, RLM (300 μg/ml), AA (100 μM), NADPH (1 mM) and test compounds at 12 concentrations (0.1 nM-50 μM) in a 1 ml total volume in microsomal incubation buffer (0.12 M potassium phosphate buffer containing 5 mM magnesium chloride). Reaction was started by adding NADPH to the incubates and was carried out at 37° C. in a shaking water bath for 20 min. Reaction was stopped by placing tubes on ice, followed by adding 12.5 μl 20-HETE-d6 as internal standard to each sample. Microsomal incubations were extracted with 3 ml ethyl ether twice, dried down under nitrogen gas and reconstituted in 125 μl 80:20 methanol:deionized H2O for analysis. 20-HETE formation was quantified using the validated UPLC-MS/MS assay described above and normalized by vehicle group. HET0016 (250 nM) was used as positive control. Incubates without NADPH group served as the negative control. IC50 was determined by fitting the dose-response curve using Graphpad Prism nonlinear regression.

MDR1 (P-gp) = assay: BBB penetration potential, MDR1-MDCK permeability; format: in vitro ADME; conditions: dog; for Papp A→B at 120 min, 5 μM: apical to basolateral, pH 7.4, read-out: BBB penetration potential MDCK A-B 10−6 cm/s; for Papp B→A at 120 min, 5 μM: basolateral to apical, pH 7.4, read-out: BBB penetration potential MDCK B-A 10−6 cm/s
Protocol: BBB penetration potential assessment data in Table 1 was obtained as follows. MDR1-MDCK cell monolayers were grown to confluence on collagen-coated, microporous membranes in 12-well assay plates. Atenolol, propranolol and digoxin were used as control to assess plate quality. The permeability assay buffer was Hanks' balanced salt solution containing 10 mM HEPES and 15 mM glucose at a pH of 7.4. The buffer in the receiver chamber also contained 1% bovine serum albumin. The dosing solution concentration was 5 μM of test article in the assay buffer. Cell monolayers were dosed on the apical side (A-to-B) or basolateral side (B-to-A) and incubated at 37° C. with 5% CO2 in a humidified incubator. Samples were taken from the donor and receiver chambers at 120 minutes. Each determination was performed in duplicate the flux of lucifer yellow was also measured post-experimentally for each monolayer to ensure no damage was inflicted to the cell monolayers during the flux period. All samples were assayed by LC-MS/MS using electrospray ionization using a PE SCIEX API 4000 spectrometer and total run time of 1 min. Analytical method/conditions were: Liquid Chromatography Column: Waters ACQUITY UPLC BEH Phenyl 30×2.1 mm, 1.7 m; M.P. Buffer: 25 mM ammonium formate buffer, pH 3.5; Aqueous Reservoir (A): 90% water, 10% buffer; Organic Reservoir (B): 90% acetonitrile, 10% buffer; Flow Rate: 0.7 mL/minute; gradient program: 99% A (t=0 min), 1% A (t=0.65 min), 1% A (t=0.75 min), 99% A (t=0.8 min), 99% A (t=1 min); 5 μL injection volume
The apparent permeability (Papp) and percent recovery were calculated as follows: Papp=(dCr/dt)×Vr/(A×CA) (1) Percent Recovery=100×((Vr×Cr^final)+(Vd×Cd^final))/(Vd×CN) (2)
wherein: • dCr/dt is the slope of the cumulative concentration in the receiver compartment versus time in μMs^−1; • Vr is the volume of the receiver compartment in cm^3; • Vd is the volume of the donor compartment in cm^3; • A is the area of the insert (1.13 cm^2 for 12-well); • CA is the average of the nominal dosing concentration and the measured 120 minute donor concentration in μM; • CN is the nominal concentration of the dosing solution in μM; • Cr^final is the cumulative receiver concentration in μM at the end of the incubation period; • Cd^final is the concentration of the donor in μM at the end of the incubation period. Efflux ratio (ER) is defined as Papp (B-to-A)/Papp (A-to-B) Interpretation Brain Penetration Potential Classification: • Papp (A-to-B)≥3.0 and ER<3.0: High • Papp (A-to-B)≥3.0 and 10>ER≥3.0: Moderate • Papp (A-to-B)≥3.0 and ER≥10, or Papp (A-to-B)<3.0 Low

Compound	HLM % inh. @ 500 nM [1]	inhibition at 0.5 µM (rCYP4F2)	RLM % inh. @ 500 nM [2]	RKM % inh. @ 500 nM [3]	solubility at 2 h ([4]; OD620, read-out: Max Solub)	solubility at 2 h ([4]; read-out: Solubility_ug/mL)	IC50 [5]	Papp A→B at 120 min, 5 μM (MDR1 (P-gp))	Papp B→A at 120 min, 5 μM (MDR1 (P-gp))
CC(=O)Nc1ccc(C2CCN(c3ccn[nH]3)CC2)cc1 [Compound 29, N-(4-(1-(1H-Pyrazol-5-yl)piperidin-4-yl)phenyl)acetamide]	60.00%	55%	38.00%	7.00%	> 600 µM	171 µg/mL	0.17 µM	–	–
COc1ccc(C2CCN(c3cn[nH]c3)CC2)cn1 [Compound 32, 5-(1-(1H-Pyrazol-4-yl)piperidin-4-yl)-2-methoxypyridine]	59.00%	67%	0.00%	25.00%	391 µM	101 µg/mL	0.13 µM	–	–
Cc1cccc(C2CCN(c3ccn[nH]3)CC2)c1 [Compound 33, 1-(1H-Pyrazol-5-yl)-4-(m-tolyl)piperidine]	72.00%	69%	12.00%	16.00%	–	–	0.18 µM	–	–
Cc1ccccc1C1CCN(c2cn[nH]c2)CC1 [Compound 36, 1-(1H-Pyrazol-4-yl)-4-(o-tolyl)piperidine]	46.00%	61%	0.00%	4.00%	752 µM	–	0.65 µM	–	–
COc1ccc(C2CCN(c3cn[nH]c3)CC2)cc1Cl [Compound 64, 4-(3-Chloro-4-methoxyphenyl)-1-(1H-pyrazol-4-yl)piperidine]	88%	72%	49.00%	–	19.5 µM	–	–	46.4 ×10⁻⁶ cm/s	34.8 ×10⁻⁶ cm/s
CC(=O)N(C)c1ccc(C2CCN(c3cn[nH]c3)CC2)c(F)c1 [Compound 69, N-(4-(1-(1H-Pyrazol-4-yl)piperidin-4-yl)-3-fluorophenyl)-N-methylacetamide]	85.6%	57.9%	27.70%	–	304 µM	–	–	22.3 ×10⁻⁶ cm/s	44.4 ×10⁻⁶ cm/s
O=C(c1ccc(C2CCN(c3cn[nH]c3)CC2)c(F)c1)N1CCCC1 [Compound 81, (4-(1-(1H-Pyrazol-4-yl)piperidin-4-yl)-3-fluorophenyl)(pyrrolidin-1-yl)methanone]	83.1%	66%	19.30%	–	353 µM	–	0.0474 µM	–	–
O=C1CCCN1c1ccc(C2CCN(c3ccn[nH]3)CC2)cc1 [Compound 101, 1-(4-(1-(1H-Pyrazol-5-yl)piperidin-4-yl)phenyl)pyrrolidin-2-one]	79.00%	80%	48.70%	–	158 µM	–	–	33.8 ×10⁻⁶ cm/s	46.7 ×10⁻⁶ cm/s
CC(Nc1ccc(C2CCN(c3cn[nH]c3)CC2)cc1)C(F)(F)F (stereo not drawn) [Compound 104, 4-(1-(1H-Pyrazol-4-yl)piperidin-4-yl)-N-(1,1,1-trifluoropropan-2-yl)aniline]	86.1%	78%	36.00%	–	31 µM	–	–	50.4 ×10⁻⁶ cm/s	48.9 ×10⁻⁶ cm/s
